From the supplement of paper PMC10307832

Experiments:
Test in all cases: relative viability (nuclei count vs DMSO), 5 days (fraction); higher = more cells survive
[1] = compound: C1=CC2=NC=CN=C2C=C1/C=C/3\C(=O)NC(=O)S3 + CCNC(=O)c1noc(-c2cc(C(C)C)c(O)cc2O)c1-c1ccc(CN2CCOCC2)cc1 [Luminespib] (partner 0.01 µM)
Method in brief: (§1)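 One day after seeding in 1536-well plates, lung cancer cell lines were dosed by pin tool. Dosing was either single-drug or a fixed anchor-drug dose plus five library-drug doses (not always all listed) in √10 steps. After 5 days, nuclei were stained in one fix-and-stain step and counted on 4× images, and relative viability is the nuclei count of treated wells over that of vehicle wells, given as the median of duplicate plates.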

BGJ398 + OSI-027 = compound: CCN1CCN(c2ccc(Nc3cc(N(C)C(=O)Nc4c(Cl)c(OC)cc(OC)c4Cl)ncn3)cc2)CC1 [BGJ398] + COc1cccc2cc(-c3nc([C@H]4CC[C@H](C(=O)O)CC4)n4ncnc(N)c34)[nH]c12 [OSI-027] (partner 0.5 µM)
Method in brief: as §1

[2] = compound: C1=CC2=NC=CN=C2C=C1/C=C/3\C(=O)NC(=O)S3 + CS(=O)(=O)N1CCN(Cc2cc3nc(-c4cccc5[nH]ncc45)nc(N4CCOCC4)c3s2)CC1 [Pictilisib] (partner 1 µM)
Method in brief: as §1

BGJ398 + AZD7762 = compound: CCN1CCN(c2ccc(Nc3cc(N(C)C(=O)Nc4c(Cl)c(OC)cc(OC)c4Cl)ncn3)cc2)CC1 [BGJ398] + NC(=O)Nc1cc(-c2cccc(F)c2)sc1C(=O)N[C@H]1CCCNC1 [AZD7762] (partner 0.2 µM)
Method in brief: as §1

With NCI-H2170 the relative viability ([1]; first compound 0.02 µM) was 0.757, the relative viability ([1]; first compound 0.06325 µM) was 0.942 and the relative viability ([1]; first compound 0.2 µM) was 0.79. It also gave a relative viability ([1]; first compound 0.6325 µM) of 0.525, a relative viability ([1]; first compound 2 µM) of 0.717 and a relative viability (BGJ398 + OSI-027; first compound 0.01 µM) of 0.742. The relative viability (BGJ398 + OSI-027; first compound 0.03162 µM) was 0.606, the relative viability (BGJ398 + OSI-027; first compound 0.1 µM) was 0.706 and the relative viability (BGJ398 + OSI-027; first compound 0.3162 µM) was 0.619. The relative viability (BGJ398 + OSI-027; first compound 1 µM) was 0.707, the relative viability ([2]; first compound 0.02 µM) was 0.296 and the relative viability ([2]; first compound 0.06325 µM) was 0.273. The relative viability ([2]; first compound 0.2 µM) was 0.369, the relative viability ([2]; first compound 0.6325 µM) was 0.28 and the relative viability ([2]; first compound 2 µM) was 0.258. For the same cell line, the relative viability (BGJ398 + AZD7762; first compound 0.01 µM) was 0.906, the relative viability (BGJ398 + AZD7762; first compound 0.03162 µM) was 0.843 and the relative viability (BGJ398 + AZD7762; first compound 0.1 µM) was 1.01. The relative viability (BGJ398 + AZD7762; first compound 0.3162 µM) was 0.861 and the relative viability (BGJ398 + AZD7762; first compound 1 µM) was 0.912.

NCI-H2347 showed a relative viability ([1]; first compound 0.02 µM) of 0.38, a relative viability ([1]; first compound 0.06325 µM) of 0.288 and a relative viability ([1]; first compound 0.2 µM) of 0.548. The relative viability ([1]; first compound 0.6325 µM) was 0.354, the relative viability ([1]; first compound 2 µM) was 0.431 and the relative viability (BGJ398 + OSI-027; first compound 0.01 µM) was 0.228. For the same cell line, the relative viability (BGJ398 + OSI-027; first compound 0.03162 µM) was 0.557, the relative viability (BGJ398 + OSI-027; first compound 0.1 µM) was 0.447 and the relative viability (BGJ398 + OSI-027; first compound 0.3162 µM) was 0.413. It also gave a relative viability (BGJ398 + OSI-027; first compound 1 µM) of 0.434, a relative viability ([2]; first compound 0.02 µM) of 0.706 and a relative viability ([2]; first compound 0.06325 µM) of 0.609. For the same cell line, the relative viability ([2]; first compound 0.2 µM) was 0.748, the relative viability ([2]; first compound 0.6325 µM) was 0.527 and the relative viability ([2]; first compound 2 µM) was 0.757. For the same cell line, the relative viability (BGJ398 + AZD7762; first compound 0.01 µM) was 0.811, the relative viability (BGJ398 + AZD7762; first compound 0.03162 µM) was 0.801 and the relative viability (BGJ398 + AZD7762; first compound 0.1 µM) was 0.837. It also gave a relative viability (BGJ398 + AZD7762; first compound 0.3162 µM) of 0.814 and a relative viability (BGJ398 + AZD7762; first compound 1 µM) of 0.851.

NCI-H2405 gave a relative viability ([1]; first compound 0.02 µM) of 0.783, a relative viability ([1]; first compound 0.06325 µM) of 0.598 and a relative viability ([1]; first compound 0.2 µM) of 0.6. It also gave a relative viability ([1]; first compound 0.6325 µM) of 0.699, a relative viability ([1]; first compound 2 µM) of 0.424 and a relative viability (BGJ398 + OSI-027; first compound 0.01 µM) of 0.644. The relative viability (BGJ398 + OSI-027; first compound 0.03162 µM) was 0.724, the relative viability (BGJ398 + OSI-027; first compound 0.1 µM) was 0.664 and the relative viability (BGJ398 + OSI-027; first compound 0.3162 µM) was 0.666. The relative viability (BGJ398 + OSI-027; first compound 1 µM) was 0.655, the relative viability ([2]; first compound 0.02 µM) was 0.488 and the relative viability ([2]; first compound 0.06325 µM) was 0.504. The relative viability ([2]; first compound 0.2 µM) was 0.428, the relative viability ([2]; first compound 0.6325 µM) was 0.433 and the relative viability ([2]; first compound 2 µM) was 0.182. For the same cell line, the relative viability (BGJ398 + AZD7762; first compound 0.01 µM) was 0.84, the relative viability (BGJ398 + AZD7762; first compound 0.03162 µM) was 0.857 and the relative viability (BGJ398 + AZD7762; first compound 0.1 µM) was 0.781. The relative viability (BGJ398 + AZD7762; first compound 0.3162 µM) was 0.757 and the relative viability (BGJ398 + AZD7762; first compound 1 µM) was 0.656.

With NCI-H3122 the relative viability ([1]; first compound 0.02 µM) was 0.0669, the relative viability ([1]; first compound 0.06325 µM) was 0.0861 and the relative viability ([1]; first compound 0.2 µM) was 0.11. For the same cell line, the relative viability ([1]; first compound 0.6325 µM) was 0.0884, the relative viability ([1]; first compound 2 µM) was 0.106 and the relative viability (BGJ398 + OSI-027; first compound 0.01 µM) was 0.91. The relative viability (BGJ398 + OSI-027; first compound 0.03162 µM) was 1, the relative viability (BGJ398 + OSI-027; first compound 0.1 µM) was 0.941 and the relative viability (BGJ398 + OSI-027; first compound 0.3162 µM) was 1. It also gave a relative viability (BGJ398 + OSI-027; first compound 1 µM) of 1.05, a relative viability ([2]; first compound 0.02 µM) of 0.697 and a relative viability ([2]; first compound 0.06325 µM) of 0.487. The relative viability ([2]; first compound 0.2 µM) was 0.578, the relative viability ([2]; first compound 0.6325 µM) was 0.547 and the relative viability ([2]; first compound 2 µM) was 0.364. For the same cell line, the relative viability (BGJ398 + AZD7762; first compound 0.01 µM) was 0.51, the relative viability (BGJ398 + AZD7762; first compound 0.03162 µM) was 1 and the relative viability (BGJ398 + AZD7762; first compound 0.1 µM) was 1.04. For the same cell line, the relative viability (BGJ398 + AZD7762; first compound 0.3162 µM) was 1.02 and the relative viability (BGJ398 + AZD7762; first compound 1 µM) was 1.17.

Work on PC-3 [JPC-3] yielded a relative viability ([1]; first compound 0.02 µM) of 0.704, a relative viability ([1]; first compound 0.06325 µM) of 0.767 and a relative viability ([1]; first compound 0.2 µM) of 0.732. It also gave a relative viability ([1]; first compound 0.6325 µM) of 0.687, a relative viability ([1]; first compound 2 µM) of 0.813 and a relative viability (BGJ398 + OSI-027; first compound 0.01 µM) of 0.738. For the same cell line, the relative viability (BGJ398 + OSI-027; first compound 0.1 µM) was 0.76, the relative viability (BGJ398 + OSI-027; first compound 0.3162 µM) was 0.578 and the relative viability (BGJ398 + OSI-027; first compound 1 µM) was 0.676. The relative viability ([2]; first compound 0.02 µM) was 0.687, the relative viability ([2]; first compound 0.06325 µM) was 0.881 and the relative viability ([2]; first compound 0.2 µM) was 0.594. It also gave a relative viability ([2]; first compound 0.6325 µM) of 0.65, a relative viability ([2]; first compound 2 µM) of 0.8 and a relative viability (BGJ398 + AZD7762; first compound 0.01 µM) of 0.853. For the same cell line, the relative viability (BGJ398 + AZD7762; first compound 0.1 µM) was 0.781 and the relative viability (BGJ398 + AZD7762; first compound 1 µM) was 0.837.

In the case of PC-14, the relative viability ([1]; first compound 0.02 µM) is reported as 0.145, the relative viability ([1]; first compound 0.06325 µM) is reported as 0.19 and the relative viability ([1]; first compound 0.2 µM) is reported as 0.195. It also gave a relative viability ([1]; first compound 0.6325 µM) of 0.193, a relative viability ([1]; first compound 2 µM) of 0.152 and a relative viability (BGJ398 + OSI-027; first compound 0.01 µM) of 0.781. For the same cell line, the relative viability (BGJ398 + OSI-027; first compound 0.03162 µM) was 0.16, the relative viability (BGJ398 + OSI-027; first compound 0.1 µM) was 1.07 and the relative viability (BGJ398 + OSI-027; first compound 0.3162 µM) was 0.464. The relative viability (BGJ398 + OSI-027; first compound 1 µM) was 1.07, the relative viability ([2]; first compound 0.02 µM) was 0.636 and the relative viability ([2]; first compound 0.06325 µM) was 0.75. It also gave a relative viability ([2]; first compound 0.2 µM) of 0.735, a relative viability ([2]; first compound 0.6325 µM) of 0.652 and a relative viability ([2]; first compound 2 µM) of 0.531. The relative viability (BGJ398 + AZD7762; first compound 0.01 µM) was 0.403, the relative viability (BGJ398 + AZD7762; first compound 0.1 µM) was 0.387 and the relative viability (BGJ398 + AZD7762; first compound 0.3162 µM) was 0.176. For the same cell line, the relative viability (BGJ398 + AZD7762; first compound 1 µM) was 0.249.

Work on RERF-LC-KJ yielded a relative viability ([1]; first compound 0.02 µM) of 1.2, a relative viability ([1]; first compound 0.06325 µM) of 1.52 and a relative viability ([1]; first compound 0.2 µM) of 1.23. For the same cell line, the relative viability ([1]; first compound 0.6325 µM) was 1.14, the relative viability ([1]; first compound 2 µM) was 1.28 and the relative viability (BGJ398 + OSI-027; first compound 0.01 µM) was 0.587. It also gave a relative viability (BGJ398 + OSI-027; first compound 0.03162 µM) of 0.576, a relative viability (BGJ398 + OSI-027; first compound 0.1 µM) of 0.654 and a relative viability (BGJ398 + OSI-027; first compound 0.3162 µM) of 0.573. For the same cell line, the relative viability (BGJ398 + OSI-027; first compound 1 µM) was 0.506, the relative viability ([2]; first compound 0.02 µM) was 0.502 and the relative viability ([2]; first compound 0.06325 µM) was 0.457. It also gave a relative viability ([2]; first compound 0.2 µM) of 0.492, a relative viability ([2]; first compound 0.6325 µM) of 0.518 and a relative viability ([2]; first compound 2 µM) of 0.482. The relative viability (BGJ398 + AZD7762; first compound 0.01 µM) was 0.858, the relative viability (BGJ398 + AZD7762; first compound 0.03162 µM) was 1 and the relative viability (BGJ398 + AZD7762; first compound 0.1 µM) was 0.987. It also gave a relative viability (BGJ398 + AZD7762; first compound 0.3162 µM) of 0.819 and a relative viability (BGJ398 + AZD7762; first compound 1 µM) of 0.295.
